Like-named read-outs stand apart in the source and are kept apart here. Values belong to the compound of their own block, whether it stands above or below them.
Assays:
[1] = Stability of PVOH pouches containing solvents; settings: 26 weeks at 40° C. then 26 weeks at room temperature
Method: In small pouches made from a standard PVOH film, different solvents were added (1 mL), the pouch was sealed using a hot plate (150° C.). The pouches containing the solvent were stored for 26 weeks at 40° C. and then for 26 weeks at room temperature.

[2] = Solubility in water at 20° C.; assay type: physicochemical
[3] = Dissolution and storage stability of MnTACN salts in various solvents; assay type: physicochemical
Method: Dissolution of MnTACN-PF6 catalyst in various solvents was performed. First a screening was done in which solvents the PF6 salt of the MnTACN catalyst could be dissolved.

[4] = Dishwash machine tea-stain cleaning experiments; settings: 0 = no cleaning, 100 = complete removal
Method: A standard dishwash machine tablet was prepared using the same ingredients as disclosed in WO2022/058039 (Weylchem Performance Products GmbH). Together with each tablet (14 g) on top, either no catalyst was added (blank), 100 mg of Weylclean® FDO X (uncoated granules containing 2 wt-% of MnTACN-PF6 (comparative)) was added, or 82 mg of dipropylene glycol containing 1.64 mg of dissolved MnTACN-SO4 (Exp low MnTACN-SO4) or 100 mg of dipropylene glycol containing 2 mg of dissolved MnTACN-SO4 (Exp high MnTACN-SO4).

[5] = Dowanol PM with 3 wt % citric acid
[6] = dipropylene glycol with 3 wt % of nitric acid
[7] = dipropylene glycol with 3 wt % sulfuric acid
[8] = propylene glycol, no acids added

Compound: COC(C)COC(C)CO (stereo not drawn) [Dowanol DPM, dipropylene glycol methyl ether]
stability of PVOH pouches containing the solvent ([1]; solvent without acid, 1 mL): good stability

Compound: COCC(C)O (stereo not drawn) [Dowanol PM, propylene glycol methyl ether]
stability of PVOH pouches containing the solvent ([1]; solvent with 3 wt % H2SO4): not stable
stability of PVOH pouches containing the solvent ([1]; solvent with 3 wt % HNO3): good stability
stability of PVOH pouches containing the solvent ([1]; solvent with 3 wt % citric acid): not stable
stability of PVOH pouches containing the solvent ([1]; solvent without acid, 1 mL): not stable

Compound: CN1CCN(C)CCN(C)CC1.CN1CCN(C)CCN(C)CC1.O.O.O.[Cl-].[Cl-].[Mn+4].[Mn+4].[O-2].[O-2].[O-2] [MnTACN-Cl2, [Mn^IV2(μ-O)3(Me3-TACN)2]Cl2*3H2O]
solubility in water [2]: greater than 182 g/L
solubility in water ([2]; equated from g/L): > 18.2 wt %
solubility in solvent ([3]; dipropylene glycol, had to be heated): dissolved

Compound: CN1CCN(C)CCN(C)CC1.CN1CCN(C)CCN(C)CC1.O=[N+]([O-])[O-].O=[N+]([O-])[O-].[Mn+4].[Mn+4].[O-2].[O-2].[O-2] [MnTACN-NO3, [Mn^IV2(μ-O)3(Me3-TACN)2](NO3)2]
solubility in water [2]: greater than 283 g/L
solubility in water ([2]; equated from g/L): > 28.3 wt %
solubility and stability in solvent [3, 5]: good solubility and stability
solubility and stability in solvent ([3]; Dowanol PM with sulfuric acid): good solubility and stability
solubility and stability in solvent ([3]; Dowanol PM without acid): good solubility and stability
solubility and stability in solvent ([3]; dipropylene glycol): good solubility and stability
solubility and stability in solvent [3, 6]: good solubility and stability
solubility and stability in solvent [3, 7]: good solubility and stability
solubility and stability in solvent [3, 8]: good solubility and stability

Compound: CN1CCN(C)CCN(C)CC1.CN1CCN(C)CCN(C)CC1.F[P-](F)(F)(F)(F)F.F[P-](F)(F)(F)(F)F.O.[Mn+4].[Mn+4].[O-2].[O-2].[O-2] [MnTACN-PF6, [Mn^IV2(μ-O)3(Me3-TACN)2](PF6)2*H2O, reference compound]
solubility in water [2]: 10.8 g/L
solubility in solvent ([3]; 1,3-propanol-diol): Poor solubility
solubility in solvent ([3]; 1-hexanol): Poor solubility
solubility in solvent ([3]; 1-propanol): Poor solubility
solubility in solvent ([3]; 2-ethyl-1-hexanol): Poor solubility
solubility in solvent ([3]; 2-propanol): Poor solubility
solubility in solvent ([3]; Dowanol DPM): Poor solubility
solubility and stability in solvent ([3]; Dowanol PM without acid): Poor solubility
solubility in solvent ([3]; acetonitrile): dissolved very well
solubility and stability in solvent ([3]; dipropylene glycol): Poor solubility
solubility in solvent ([3]; ethanol (abs)): Poor solubility
solubility in solvent ([3]; ethyl acetate): Poor solubility
solubility in solvent ([3]; ethylene glycol, after heating): dissolved
solubility in solvent ([3]; formic acid): well soluble
stability (appearance) in solution ([3]; formic acid): turned brown

Now from value to compound, other results behind:

solubility in water [2]: greater than 735 g/L
solubility in water ([2]; equated from g/L): > 73.5 wt %
solubility and stability in solvent [3, 5]: good solubility and stability
solubility and stability in solvent ([3]; Dowanol PM with nitric acid): poor solubility
solubility and stability in solvent ([3]; Dowanol PM with sulfuric acid): poor solubility
solubility and stability in solvent ([3]; Dowanol PM without acid): good solubility and stability
solubility and stability in solvent ([3]; dipropylene glycol): good solubility and stability
solubility and stability in solvent ([3]; dipropylene glycol with 3 wt % citric acid): good solubility and stability
solubility and stability in solvent [3, 6]: precipitation
solubility and stability in solvent [3, 7]: precipitation
solubility and stability in solvent [3, 8]: good solubility and stability
Compound: CN1CCN(C)CCN(C)CC1.CN1CCN(C)CCN(C)CC1.O.O.O.O.O=S(=O)([O-])[O-].[Mn+4].[Mn+4].[O-2].[O-2].[O-2] [MnTACN-SO4, [Mn^IV2(μ-O)3(Me3-TACN)2]SO4*4H2O]
tea-stain cleaning on tea cups ([4]; 14 g tablet + 82 mg dipropylene glycol containing 1.64 mg dissolved catalyst (Exp low)): 80 points
tea-stain cleaning on tea cups ([4]; 14 g tablet + 100 mg dipropylene glycol containing 2 mg dissolved catalyst (Exp high)): 85 points

solubility in water [2]: greater than 100 g/L
solubility in water ([2]; equated from g/L): > 10 wt %
solubility and stability in solvent ([3]; dipropylene glycol): dissolved
Compound: CN1CCN(C)CCN(C)CC1.CN1CCN(C)CCN(C)CC1.Cc1ccc(S(=O)(=O)[O-])cc1.Cc1ccc(S(=O)(=O)[O-])cc1.[Mn+4].[Mn+4].[O-2].[O-2].[O-2] [MnTACN-Ts2, [Mn^IV2(μ-O)3(Me3-TACN)2](tosylate)2]

solubility in water [2]: greater than 1000 g/L
solubility and stability in solvent ([3]; dipropylene glycol): dissolved well
stability upon storage in solution ([3]; dipropylene glycol, room temperature for at least 7 months): very high stability
Compound: CN1CCN(C)CCN(C)CC1.CN1CCN(C)CCN(C)CC1.O.O.O.O.O=C([O-])c1ccccc1.O=C([O-])c1ccccc1.[Mn+4].[Mn+4].[O-2].[O-2].[O-2] [MnTACN-benzoate, [Mn^IV2(μ-O)3(Me3-TACN)2](benzoate)2*4H2O]

— patent US20250059474A1, “Liquid formulation comprising an alcohol and highly water soluble manganese complex salt catalyst, bleaching formulation and cleaning agent comprising the same” (Catexel GmbH, priority 2023, published 2025)
